Experimental data reported in patent US20250222114A1, “GLYCOCONJUGATED DRUG FOR THE TREATMENT OF HEPATOCELLULAR CARCINOMA” (priority 2021, published 2025).
pIC50: −log10 of the molar value. Several values for one entry are separate records, joined by “and”; a condition that tells them apart may be missing. Equal entries are not always repeated.

Assays:
HAS2 [1] = experiment: HAS2 mRNA expression (RT-qPCR), CFSC-2G; type: cell-based, rat; conditions: CFSC-2G cells
Procedure: (§1) Since HAS mRNA levels often correspond to the activity of hyaluronan synthesis, the effect of 4MUR on HAS2 and HAS3 expression was assessed. To this end, cells with a concentration of 100,000 cells/ml were cultured on 6-well plates and treated with 4MUR (500 μM) for 24 h. Total RNA was extracted using the TriReagent (Sigma Aldrich) according to the manufacture's protocol. RNA was quantified at 260 nm in a DU®730 spectrophotometer (Beckman Coulter, Fullerton, CA, USA). The RNA purity was evaluated according to MIQE guidelines by measuring the ratio A260/A280. […] RT-qPCR for HAS2, HAS3 genes was performed using iQ SYBR Green Supermix protocol (Bio-Rad Laboratories, Milan, Italy). Each PCR amplification was carried out following manufactures instructions (iQ SYBR Green Supermix-Bio-Rad) in a Bio-Rad iQ5 real-time PCR detection system (iCycler IQ5 software, version 3.1; Bio-Rad) Expression was normalized to actin with two reference genes.

[2] = tested on: Huh7 (human hepatic cell line); experiment: Cell viability (CellTiter), Huh7; type: cell-based; conditions: for pIC50: Huh7 cells
Procedure: (§2) In order to evaluate the therapeutic efficacy and potential cytotoxicity of the glycoconjugated drug of the invention for the treatment of HCC, cell viability assays were carried out in different cell lines. To this end, an in vitro model was designed. The cells used for in vitro assay were a murine hepatic cell line (Hepa1-6) and a human hepatic cell line (Huh7). Chemiograms were performed using increasing doses of the compound 4-MU as well as the glycosylated compound 4MUR (0-2000 μM). Cell viability was measured by using the CellTiter kit (Promega Corporation). Proliferation was measured through a tritiated thymidine incorporation assay, by incubating the cells for 48 h with either one of the compounds (4MU/4MUR) or culture medium (RPMI) in the presence of 3H-thymidine (Migliore-LaClaustra).

Hepa129 cells [3] = experiment: Apoptosis by acridine orange/ethidium bromide staining, Hepa129; type: cell-based, murine; conditions: 48h; for induction of apoptosis: Hepa129, 0.1 mM; for cells showing death by apoptosis: Hepa129, 1 mM
Procedure: On the other hand, it was examined if growth inhibition by 4MUR was due to induction of apoptosis. To this end, cells were stained with an orange solution of acridine-ethidium bromide (Acridine Orange (NA)/Ethidium Bromide (BrEt) staining) and were then visualized by fluorescence microscopy to analyze their morphological characteristics. Briefly, after 48h of treatment, the cells were incubated with a mixture of NA/BrEt (1 ug/ml) and were then observed under a fluorescence microscope (Nikon). Viable cells are permeable to NA and are stained green. Cells with an altered plasma membrane allow BrEt to enter, which displaces NA, staining the cell orange. The percentage of viable or apoptotic cells was counted for each treatment.

Toxicity study in mice = type: in vivo, C3Hj mice; conditions: for animal body weight: more than 20 days
Procedure: In order to evaluate the toxicity of the compound of the invention, an in vivo assay with mice was carried out. Animals treated with 4MUR were kept healthy during all the experimental protocol.
Briefly, C3Hj mice untreated (n=4) or treated with 4MU (n=4) or 4MUR (n=5) were used to assess its toxicology profile. Mice weight was supervised for more than 20 days. At the end of the experiments, healthy mice or mice receiving 4MU/4MUR were sacrificed to collect liver, spleen, heart, lung, and kidney samples. Tissue sections from liver, spleen, heart, and lungs were paraffin-embedded and H&E staining procedure was performed using standard protocols.

HAS2 [4] = experiment: HAS2 mRNA expression (RT-qPCR), Huh7; type: cell-based, human; conditions: Huh7 cells
Procedure: as §1

Hepa129 cells [5] = experiment: Proliferation by 3H-thymidine incorporation, Hepa129; type: cell-based, murine; conditions: for dose at which proliferation was significantly decreased: Hepa129, 48 h, 3H-thymidine
Procedure: Chemiograms were performed using increasing doses of the compound 4-MU as well as the glycosylated compound 4MUR (0-2000 μM). Cell viability was measured by using the CellTiter kit (Promega Corporation). Proliferation was measured through a tritiated thymidine incorporation assay, by incubating the cells for 48 h with either one of the compounds (4MU/4MUR) or culture medium (RPMI) in the presence of 3H-thymidine (Migliore-LaClaustra). After incubation, cells were harvested and centrifuged to remove ^3H-thymidine from the supernatant. The cell pellet was lysed with sterile distilled water (200 μl) and said volume was added to paper filters for retaining cell DNA with incorporated ^3H-thymidine. Each paper filter was impregnated in a tube containing scintillation liquid and each sample was run and read using a liquid scintillator counter (Beckman) detecting […] per minute emitted by tritium (^3H). Results are expressed as counts per minute (cpm) for each sample. Proliferation capacity of murine Hepa129 cells treated with 4MU and 4MUR was evaluated, as measured by ^3H-thymidine incorporation.

[6] = tested on: orthotopic Hepa129 tumors; experiment: Orthotopic hepatocellular carcinoma model associated with advanced fibrosis induced by TAA; type: in vivo, C3H/He mice; conditions: for tumor volume: 20 mg/Kg i.p. 3 times a week, day 21 post Hepa129 inoculation; for animals in which tumors were not detected macroscopically: day 21 post-Hepa129; for animal survival: Day 20, FIG. 12C; for fibrosis degree measured by collagen deposits (Sirius red): liver sections
Procedure: To assess the in vivo antitumoral efficacy of 4MUR, an orthotopic tumor model associated with advanced fibrosis induced by TAA was established
C3H/He mice were intraperitoneally (i.p.) treated with 20 mg/kg thioacetamide (TAA) 3 times a week, for 4 weeks, in order to induce liver fibrosis. On day 28, mice were anesthetized and underwent surgery and orthotopic tumors were established by subcapsular intrahepatic inoculation of 1.25×10^5 Hepa129 cells into the left lobe of the liver (Day 0).
Between day 5 and day 7 post-administration of the cells, animals were again subjected to surgery for observing tumor development. Mice were divided into 3 groups (n=5) and each group received: (1) Saline solution (control); (2) 4MU dissolved in water, at a dose of 20 mg/Kg; (3) 4MUR dissolved in water at a dose of 20 mg/Kg. Intraperitoneal administration for different groups began on day 5 and was performed 3 times a week, until the end of the experiment on day 21 post Hepa129 inoculation. On day 21, animals were sacrificed, mice weight was recorded and ascites grade (mild, moderated, severe, and hemorrhagic), as well as tumor volume (mm^3), was calculated by the formula π/6×larger diameter×(smaller diameter)^2, by caliber measurement.
The 4MUR treatment on liver fibrogenesis was evaluated in the animal model. […] To assess the extent of liver fibrosis, formalin-fixed liver samples were embedded in paraffin and 5 μm sections were stained by Sirius Red for detection of fibrillar collagen. Quantitative analysis of Sirius red stained area was performed by computerized morphometric analysis. About 50 light microscope images (100× magnification) per specimen were captured and analyzed using the color threshold detection system developed in ImageJ software (NIH, USA). The results were expressed as percentage of positive area. Collagen deposition was quantified by morphometric analysis and densitometry.
To further understand the 4MUR effect on HCC, HA expression was evaluated in liver tissue sections of mice from the different groups by staining with an HA-binding protein (HA-BP). Negative controls were stained with bHA-BP and pretreated with 100 U/ml Streptomyces hyaluronidase (#385931, Calbiochem) at 37° C. for 30 min. Peroxidase complex (Sigma) 1:10 in PBS was used for developing. The signal was detected by 0.1% diaminobenzidine (Sigma-Aldrich, Buenos Aires, Argentina), 4% glucose, 0.08% ClNH4, 5% nickel ammonium sulfate in 0.2 M AcNa and 0.05% H2O2.

HAS3 [7] = experiment: HAS3 mRNA expression (RT-qPCR), Huh7; type: cell-based, human; conditions: Huh7 cells
Procedure: as §1

HAS3 [8] = experiment: HAS3 mRNA expression (RT-qPCR), CFSC-2G; type: cell-based, rat; conditions: CFSC-2G cells
Procedure: as §1

[9] = tested on: CFSC-2G (Rat hepatic stellate cell line); experiment: Cell viability, CFSC-2G; type: cell-based; conditions: CFSC-2G cells
Procedure: as §2, with “lines.” for “lines. To this end, an in vitro model was designed. The cells used for in vitro assay were a murine hepatic cell line (Hepa1-6) and a human hepatic cell line (Huh7).”

[10] = tested on: IHH (human hepatocytes cell line); experiment: Cell viability, IHH; type: cell-based; conditions: IHH cells
Procedure: as §2, with “lines.” for “lines. To this end, an in vitro model was designed. The cells used for in vitro assay were a murine hepatic cell line (Hepa1-6) and a human hepatic cell line (Huh7).”

HA in CFSC-2G cells = experiment: HA content by flow cytometry, CFSC-2G; type: cell-based, rat; conditions: 0.25-1 mM, 48 h
Procedure: The levels of HA were quantified in the activated stellate cells CFSC-2G. For this goal, HA was detected by incubation with HA-fluorescein iso-thiocyanate (FITC) (20 μg/100 μL, Calbiochem SA, Bs. As., Argentina). Cells were treated with 4MU or 4MUR 0.25-1 mM and fixed were analyzed by flow cytometry with a FACS Accuri, BD (Becton Dickinson Immunocytometry Systems), using the BD Accuri 6C™ software.

HA in Hepa129 cells = experiment: HA content by flow cytometry, Hepa129; type: cell-based, murine; conditions: 48 h
[11] = tested on: orthotopic Hepa129 tumors; experiment: Orthotopic hepatocellular carcinoma model associated with advanced fibrosis induced by TAA; type: in vivo, C3H/He mice; conditions: oral administration 200 mg/kg/day
[12] = tested on: Hepa1-6 (murine hepatic cell line); experiment: Cell viability, Hepa1-6; type: cell-based; conditions: Hepa 1.6 cells, compared with 4-MU
Procedure: In order to evaluate the therapeutic efficacy and potential cytotoxicity of the glycoconjugated drug of the invention for the treatment of HCC, cell viability assays were carried out in different cell lines.
To this end, an in vitro model was designed. The cells used for in vitro assay were a murine hepatic cell line (Hepa1-6) and a human hepatic cell line (Huh7).
Chemiograms were performed using increasing doses of the compound 4-MU as well as the glycosylated compound 4MUR (0-2000 μM). Cell viability was measured by using the CellTiter kit (Promega Corporation). Proliferation was measured through a tritiated thymidine incorporation assay, by incubating the cells for 48 h with either one of the compounds (4MU/4MUR) or culture medium (RPMI) in the presence of 3H-thymidine (Migliore-LaClaustra).

[13] = tested on: α-SMA, TGF-β, COL1A2, TIMP-1, MMP-9 in CFSC-2G cells; experiment: Fibrotic-related gene expression by qPCR, CFSC-2G; type: cell-based, rat; conditions: 48 h
Procedure: The effect of 4MUR on liver fibrogenesis was assessed by the expression of the fibrotic-related genes including α-SMA, TGF-β, profibrogenic (COL1A2 and TIMP-1), and the antifibrogenic gene matrix metalloproteinase (MMP-9) on CFSC-2G cells by qPCR.

Cc1cc(=O)oc2cc(O)ccc12 [4MU, 4-Methylumbelliferone, reference compound]
HAS2 upregulation (HAS2 [1]): around 5 fold | pIC50 ([2]; Homo sapiens, Huh-7): < 2.70 | induction of apoptosis (Hepa129 cells [3]): resistant | cells showing death by apoptosis (Hepa129 cells [3]): 60% | histology (H&E) of liver, kidney, lungs, spleen, heart (Toxicity study in mice): no induced tissue damage | animal body weight (Toxicity study in mice): no significant changes | expression of HAS2 (HAS2 [4]): did not affect | lowered proliferation (Hepa129 cells [5]; Hepa129, 1 mM): 50% | dose at which proliferation was significantly decreased (Hepa129 cells [5]): 1 mM | tumor volume [6]: 243.8±94.0 mm^3 | animals in which tumors were not detected macroscopically ([6]; 20 mg/Kg i.p.): 20% | animal survival [6]: 66% and 67% | fibrosis degree measured by collagen deposits (Sirius red) ([6]; 20 mg/Kg i.p.): 0.53±0.04 | HAS3 up-regulation (HAS3 [7]): around 3.5 fold | HAS3 expression upregulation (HAS3 [8]): 4.2 fold | pIC50 ([9]; Rattus norvegicus): 2.94 | pIC50 ([10]; Homo sapiens, Hepatocyte): 3.31 | HA level (HA in CFSC-2G cells): significantly decreased | HA contents (HA in Hepa129 cells): significantly decreased

Cc1cc(=O)oc2cc(O[C@@H]3O[C@H](CO[C@@H]4O[C@@H](C)[C@H](O)[C@@H](O)[C@H]4O)[C@@H](O)[C@H](O)[C@H]3O)ccc12 [4MUR, 4-methylumbelliferyl-rutinoside]
HAS2 expression (HAS2 [1]): did not affect | efficacy against hepatocellular carcinoma [11]: efficient | increase of 4MU antitumoral effect by glycosylation ([2]; Huh7, 4MUR compared to 4MU): 2.2 | pIC50 [2]: 3.31 | induction of apoptosis (Hepa129 cells [3]): significantly induced apoptosis | cells showing death by apoptosis (Hepa129 cells [3]): 100% | health of animals during the experimental protocol (Toxicity study in mice): kept healthy | histology (H&E) of liver, kidney, lungs, spleen, heart (Toxicity study in mice): no induced tissue damage | animal body weight (Toxicity study in mice): no significant changes | expression of HAS2 (HAS2 [4]): significantly reduced | lower dose for significant decrease of proliferation vs 4MU (Hepa129 cells [5]; Hepa129): 10 times | proliferation (Hepa129 cells [5]; Hepa129, 1 mM): did not proliferate | dose at which proliferation was significantly decreased (Hepa129 cells [5]): 0.1 mM | in vitro antitumoral effect [12]: significantly higher than 4-MU | HA expression in liver tissue (HA-BP staining) ([6]; 20 mg/Kg i.p.): remarkable reduction | tumor volume [6]: 113.5±77.8 mm^3 | animals in which tumors were not detected macroscopically ([6]; 20 mg/Kg i.p.): 60% | animal survival [6]: 100% | amount of ascitic fluid ([6]; compared with untreated mice and 4MU): significantly reduced | efficacy against hepatocellular carcinoma ([6]; i.p. 20 mg/kg/day): efficient | fibrosis degree measured by collagen deposits (Sirius red) ([6]; 20 mg/Kg i.p.): 0.21±0.02 | expression of HAS3 (HAS3 [7]): significantly reduced | HAS3 expression down regulation (HAS3 [8]): 4.5 fold | pIC50 [9]: < 2.70 | increase of IC50 values of 4MUR compared to 4MU [9]: 25.8 fold | COL1A2 expression [13]: strongly downregulated | MMP-9 expression [13]: not affected | TGF-β expression [13]: strongly downregulated | TIMP-1 expression [13]: strongly downregulated | α-SMA expression [13]: strongly downregulated | pIC50 [10]: < 2.70 | increase of IC50 values of 4MUR compared to 4MU [10]: 6.2 fold | HA level (HA in CFSC-2G cells): significantly decreased | HA contents (HA in Hepa129 cells): significantly decreased
